In general, IC50 refers to the concentration that inhibits the measured activity by half.

This passage reports IC50 results from US20260176289A1, “SMALL MOLECULE INHIBITORS OF KRAS PROTEINS” (Merck Sharp & Dohme LLC, priority 2022, published 2026).

Structures are written as SMILES.

The assay deals with AsPC-1 cells. Put plainly: Cellular phospho-ERK assay, AsPC-1 cells (homozygous KRAS-G12D). Type of assay: cell-based. The note with it: Homo sapiens, ASPC1, 2 h, KRAS-G12D, 2 hours, read-out: AsPC1 pERK IC50. Summed up:
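ERK phosphorylation relative to total ERK is the endpoint, detected by AlphaScreen-based SureFire multiplex following a 2-hour treatment at 37 °C. Compounds are titrated 1:3 over ten points from 30 μM.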

For the molecule `C#Cc1c(F)ccc2cc(O)cc(-c3nccc4c5c(N6CCOC[C@@](C)(O)C6)nc(OC[C@@]67CCCN6C[C@H](F)C7)nc5n(C)c34)c12` [Ex-18, (S)-4-(8-(8-ethynyl-7-fluoro-3-hydroxynaphthalen-1-yl)-2-(((2R,7aS)-2-fluorotetrahydro-1H-pyrrolizin-7a(5H)-yl)methoxy)-9-methyl-9H-pyrido[4′,3′:4,5]pyrrolo[2,3-d]pyrimidin-4-yl)-6-methyl-1,4-oxazepan-6-ol], the IC50 was found to be 29.8 nM.
